Data taken from patent US11439707B2, “Hypocrellin derivative substituted both in a peri-position and in 2-position by amino, preparation method, and application thereof” (priority 2017, dated 2022).

Tests used:
[1] = singlet oxygen efficiency test, reference rose bengal; assay type: physicochemical; settings: for singlet oxygen efficiencies: comparison with reference rose bengal RB, FIG. 7
[2] = water solubility in normal saline; assay type: physicochemical; settings: per milliliter of normal saline
Procedure: Most of photosensitizer molecules disclosed in this patent contain a large number of hydrophilic groups, such as a polyethylene glycol chain, a quaternary ammonium salt, a carboxyl group, and a sulfonic acid group, etc., making the photosensitizer molecules have very high water solubility in a physiological condition; and experiments indicate that each milliliter of normal saline or glucose injection can dissolve more than 5 mg of such the photosensitizer molecules, presenting excellent water solubility. Therefore, the photosensitive drug can be well transported in blood vessels during intravenous injection, without causing a vascular blockage. HB-1c-C2-N+ prepared in example 4 contains two quaternary ammonium salts, and each milliliter of normal saline can dissolve more than 20 mg of photosensitizer molecules; HC-1c-PEG6 prepared in example 6 contains two 6-PEG chains, and each milliliter of normal saline can dissolve more than 20 mg of photosensitizer molecules; HB-8c prepared in example 19 contains two carboxyl groups, and each milliliter of normal saline can dissolve more than 10 mg of photosensitizer molecules; HB-13c prepared in example 35 contains two carboxyl groups, and each milliliter of normal saline can dissolve more than 10 mg of photosensitizer molecules; and HB-13c-PEG8 prepared in example 37 contains two 8-PEG chains, and each milliliter of normal saline can dissolve more than 20 mg of photosensitizer molecules. These photosensitizer molecules all present excellent water solubility.

Hela cells [3] = test: photo-cytotoxicity experiment (MTT, 635 nm laser); assay type: cell-based
Procedure: Photo-cytotoxicity experiment on cell: cultured Hela cells were digested and pipetted with 0.25% trypsin and to prepare a single-cell suspension, the number of cells was adjusted to about 2×10^4 per milliliter, and 200 uL of the suspension was seeded in a well of a 96-well culture plate, which is placed in a 37° C. incubator containing 5% CO2 for cultivation. After the cells adhere to the wall, a supernatant culture solution was discarded, and photosensitizers of different concentrations, that is, the hematoporphyrin derivative HpD, the hypocrellin B HB, or HB-1c-PEG6 synthesized in example 3, were added in a strictly lucifugous condition in accordance with experimental designs, and the culture plate was placed in the 37° C. incubator containing 5% CO2 for further cultivation and incubation for 1 hour. Then, a semiconductor laser with a wavelength of 635 nm was used for irradiation, a power density was adjusted to 20 mW/cm^2, light beams were evenly and vertically applied onto the 96-well culture plate, and an irradiation time was 1000 S. In addition, each 96-well culture plate is provided with a blank group, and 6 holes were provided for in each condition. After irradiation, the culture plate was placed in the 37° C. incubator containing 5% CO2 for further cultivation and incubation for 24 hours, and then a cellular survival rate was measured. The cellular survival rate was measured by means of the MTT method. 20 uL of MTT was added to each well, wherein the MTT is MTT prepared with PBS and having a concentration of 5 mg/ml. The culture plate was placed in the 37° C. incubator containing 5% CO2 for further cultivation for 4 hours, after which the cultivation was terminated. A supernatant in the well was extracted and discarded carefully. Then, 150 uL of dimethyl sulfoxide (DMSO) was added to each well, and the culture plate was shaken by using a micro shaker for 10 minutes to fully dissolve a purple crystal substance. A wavelength of 570 nm was selected to measure an optical density value (i.e., OD value) of each well on a microplate reader, and the cellular survival rate was calculated in accordance with the following formula: cellular survival rate=OD value of an experimental group/OD value of a blank group×100%.

[4] = absorption spectrum (maximum absorption wavelength, molar extinction coefficient); assay type: physicochemical
[5] = photostability under 635 nm laser irradiation; assay type: physicochemical; settings: 30 min, 20 mW/cm^2, FIG. 9
Procedure: FIG. 9 is a comparison diagram of photostabilities of the hypocrellin derivative prepared in the present invention and a commercial photosensitizer. […] However, in the same condition, after being irradiated with a 635 nm laser for 30 min at a light intensity of 20 mW/cm^2, maximum absorption performance of the commercial porphin photosensitizer Ce6 is decreased by 30% (curve c); and an absorption spectrum of the commercial hematoporphyrin photosensitizer HpD is decreased more, reaching about 50% (curve d). Therefore, in the same condition, the hypocrellin derivative prepared in the present invention has a better photostability than the commercial photosensitizers.

[6] = reactive oxygen measurement with singlet oxygen and superoxide radical scavengers; assay type: physicochemical; settings: FIG. 6(a), 6(b)
Source text: FIGS. 7(a)-7(d) show efficiency curves of measuring singlet oxygen of HB-1c and HC-1c. From the comparison with a reference rose bengal RB, it can be seen that the singlet oxygen efficiencies of HB-1c and HC-1c are respectively 0.40 and 0.38.

Hela cells [7] = test: dark cytotoxicity experiment (MTT)
Procedure: Dark cytotoxicity experiment: cultured Hela cells were digested with 0.25% trypsin and pipetted to prepare a single-cell suspension, the number of cells was adjusted to about 2×10^4 per milliliter, and 200 uL of the suspension was seeded in a well of a 96-well culture plate, which is placed in a 37° C. incubator containing 5% CO2 for cultivation. […] A cellular survival rate was measured by means of the MTT method. 20 uL of MTT was added to each well, wherein the MTT is MTT prepared with PBS and having a concentration of 5 mg/ml. The culture plate was placed in the 37° C. incubator containing 5% CO2 for further cultivation for 4 hours, after which the cultivation was terminated. A supernatant in the well was extracted and discarded carefully. Then, 150 uL of dimethyl sulfoxide was added to each well, and the culture plate was shaken by using a micro shaker for 10 minutes to fully dissolve a purple crystal substance. A wavelength of 570 nm was selected to measure an optical density value (i.e., OD value) of each well on a microplate reader, and the cellular survival rate was calculated in accordance with the following formula: cellular survival rate=OD value of an experimental group/OD value of a blank group×100%.

[8] = pH stability of absorption spectrum; assay type: physicochemical; settings: pH range of 6.2-8.0, FIG. 8
Source text: Therefore, the hypocrellin derivative prepared in the present invention has a better pH stability than the commercial hematoporphyrin HpD in the pH range of 6.2-8.0.

[9] = 240 nM, 635 nm red light, FIG. 16(b)
[10] = 200 nM, 635 nm light, FIG. 14(b)
[11] = 240 nM, 635 nm light, FIG. 15(b)
[12] = 160 nM, 635 nm laser, FIG. 12(b)

## COc1c2c3c4c(c(NCC5CCC(C(=O)O)CC5)c(=O)c5c(NCC6CCC(C(=O)O)CC6)cc(OC)c(c6c(OC)cc(O)c(c1=O)c63)c54)C=C(C)C2C(C)=O (stereo not drawn) [HB-13c]
[1]
  singlet oxygen yield: 30%
[2]
  amount dissolved by each milliliter of normal saline: more than 10 mg
Hela cells [3]; [9]
  Hela cells killed: more than 85%
[4]
  maximum absorption wavelength: 621 nm
  molar extinction coefficient: 29,500 M^−1cm^−1

## COc1c2c3c4c(c(OC)c(=O)c5c(O)cc(OC)c(c6c(OC)cc(O)c(c1=O)c63)c54)CC(C)=C2 [HC, deacetyl hypocrellin]
Hela cells [3]; 140 nM, 635 nm light, FIG. 13(b)
  Hela cells killed: 40%
Hela cells [3]; [10]
  Hela cells killed: 50%
Hela cells [3]; [11]
  Hela cells killed: 50%

## COc1c2c3c4c(c(NCCO)c(=O)c5c(NCCO)cc(OC)c(c6c(OC)cc(O)c(c1=O)c63)c54)C=C(C)C2 [HC-2c]
[1]
  singlet oxygen yield: 40%
[5]
  decrease of absorption intensity at the maximum wavelength: less than 10%
[4]
  maximum absorption wavelength: 636 nm
  molar extinction coefficient: 31,000 M^−1cm^−1

## COc1c2c3c4c(c(NCCOCCO)c(=O)c5c(NCCOCCO)cc(OC)c(c6c(OC)cc(O)c(c1=O)c63)c54)C=C(C)C2C(C)=O (stereo not drawn) [HB-1c]
[1]
  singlet oxygen efficiencies: 0.40
[6]
  photosensitive reactive species produced: primarily producing singlet oxygen

## COc1c(O)c2c(=O)cc(OC)c3c4c(OC)cc(=O)c5c(O)c(OC)c6c(c(c1CC(C)=C6C(C)=O)c23)c54 [HB, hypocrellin B]
Hela cells [3]; [12]
  Hela cells killed: about 30%
Hela cells [3]; 160 nM, 635 nm laser, FIG. 12(b), listed as hypocrellin B
  Hela cells killed: about 20%
Hela cells [3]; 160 nM, red light, FIG. 17(b)
  Hela cells killed: 30%
Hela cells [3]; 200 nM, red light, FIG. 18(b)
  Hela cells killed: 60%
Hela cells [3]; [9]
  Hela cells killed: 30%
[4]
  maximum absorption wavelength: 450 nm

## COCCOCCOCCOCCOCCOCCOC(=O)CCCNc1c2c3c4c(c(OC)c(=O)c5c(O)cc(OC)c(c6c(OC)cc(NCCCC(=O)OCCOCCOCCOCCOCCOCCOC)c(c1=O)c63)c54)CC(C)=C2 [HC-8c-PEG6]
[1]
  singlet oxygen yield: 36%
Hela cells [3]; [11]
  Hela cells killed: more than 90%
[4]
  maximum absorption wavelength: 632 nm
  molar extinction coefficient: 31,500 M^−1cm^−1
Hela cells [7]; dark
  cytotoxicity when not exposed to light: almost no cytotoxicity

## COCCOCCOCCOCCOCCOCCOCCC(=O)OCCNc1c2c3c4c(c(OC)c(=O)c5c(NCCOC(=O)CCOCCOCCOCCOCCOCCOCCOC)cc(OC)c(c6c(OC)cc(O)c(c1=O)c63)c54)CC(C)=C2 [HC-2d-PEG6]
[1]
  singlet oxygen yield: 32%
[5]
  decrease of absorption intensity at the maximum wavelength: less than 10%
[4]
  maximum absorption wavelength: 624 nm
  molar extinction coefficient: 31,500 M^−1cm^−1

## COc1c2c3c4c(c(NCCOCCO)c(=O)c5c(NCCOCCO)cc(OC)c(c6c(OC)cc(O)c(c1=O)c63)c54)C=C(C)C2 [HC-1c]
[1]
  singlet oxygen yield: 38%
  singlet oxygen efficiencies: 0.38
[4]
  molar extinction coefficient: 30,000 M^−1cm^−1
[8]
  pH stability, change in absorption spectrum: no obvious change

## COCCOCCOCCOCCOCCOCCOCCOCCOCCNC(=O)C1CCC(CNc2c3c4c5c(c(OC)c(=O)c6c(O)cc(OC)c(c7c(OC)cc(NCC8CCC(C(=O)NCCOCCOCCOCCOCCOCCOCCOCCOCCOC)CC8)c(c2=O)c74)c65)CC(C)=C3)CC1 (stereo not drawn) [HC-13c-NH-PEG8]
[1]
  singlet oxygen yield: 38%
Hela cells [3]; 200 nM, red light, FIG. 18(b)
  Hela cells killed: more than 85%
[4]
  maximum absorption wavelength: 630 nm
  molar extinction coefficient: 33,500 M^−1cm^−1

## COCCOCCOCCOCCOCCOCCOCCC(=O)OCCOCCNc1c2c3c4c(c(OC)c(=O)c5c(O)cc(OC)c(c6c(OC)cc(NCCOCCOC(=O)CCOCCOCCOCCOCCOCCOCCOC)c(c1=O)c63)c54)C(C(C)=O)C(C)=C2 (stereo not drawn) [HB-1c-PEG6]
[1]
  singlet oxygen yield: 34%
Hela cells [3]; [12]
  Hela cells killed: more than 90%
[4]
  maximum absorption wavelength: 628 nm
  molar extinction coefficient: 34,500 M^−1cm^−1
Hela cells [7]; 10 μM, incubated half hour, FIG. 12(a)
  cytotoxicity (dark toxicity): basically non-cytotoxic

## C=Cc1c(C)c2cc3nc(c(CC(=O)O)c4[nH]c(cc5nc(cc1[nH]2)C(C)=C5CC)c(C)c4C(=O)O)[C@@H](CCC(=O)O)[C@@H]3C [Ce6, reference compound]
[5]
  decrease of absorption intensity at the maximum wavelength: 30%
[4]
  maximum absorption wavelength: 650 nm
  molar extinction coefficient: less than 20000 M^−1cm^−1

## COc1c(O)c2c(=O)cc(OC)c3c4c(OC)cc(=O)c5c(NCCCC(=O)O)c(NCCCC(=O)O)c6c(c(c1C(C(C)=O)C(C)=C6)c23)c54 (stereo not drawn) [HB-8a]
[1]
  singlet oxygen yield: 25%
[2]
  amount dissolved by each milliliter of normal saline: more than 5 mg
[4]
  maximum absorption wavelength: 622 nm
  molar extinction coefficient: 27,500 M^−1cm^−1

## COc1c2c3c4c(c(NCCCC(=O)O)c(=O)c5c(NCCCC(=O)O)cc(OC)c(c6c(OC)cc(O)c(c1=O)c63)c54)C=C(C)C2C(C)=O (stereo not drawn) [HB-8c]
[1]
  singlet oxygen yield: 30%
[2]
  amount dissolved by each milliliter of normal saline: more than 10 mg
[4]
  maximum absorption wavelength: 620 nm
  molar extinction coefficient: 29,500 M^−1cm^−1

## COc1c2c3c4c(c(NCCCC(=O)O)c(=O)c5c(NCCCC(=O)O)cc(OC)c(c6c(OC)cc(O)c(c1=O)c63)c54)C=C(C)C2 [HC-8c]
[1]
  singlet oxygen yield: 27%
Hela cells [3]; [10]
  Hela cells killed: more than 85%
[4]
  maximum absorption wavelength: 618 nm
  molar extinction coefficient: 28,500 M^−1cm^−1

## COc1c(NO)c2c(=O)cc(OC)c3c4c(OC)cc(=O)c5c(O)c(NO)c6c(c(c1CC(C)=C6)c23)c54 [HC-37b]
[1]
  singlet oxygen yield: 31%
[4]
  maximum absorption wavelength: 622 nm
  molar extinction coefficient: 31,500 M^−1cm^−1

## COc1c(O)c2c(=O)cc(OC)c3c4c(OC)cc(=O)c5c(NC6CCCC6C(=O)O)c(NC6CCCC6C(=O)O)c6c(c(c1C(C(C)=O)C(C)=C6)c23)c54 (stereo not drawn) [HB-21a]
[1]
  singlet oxygen yield: 20%
[4]
  maximum absorption wavelength: 620 nm
  molar extinction coefficient: 23,500 M^−1cm^−1

## CCNc1c2c3c4c(c(OC)c(=O)c5c(NC6CCCC6)cc(OC)c(c6c(OC)c(SCCO)c(O)c(c1=O)c36)c54)C(C(C)=O)C(C)=C2 (stereo not drawn) [HB-S-44d]
[1]
  singlet oxygen yield: 21%
[4]
  maximum absorption wavelength: 622 nm
  molar extinction coefficient: 21,500 M^−1cm^−1
